Results: patent US20220306630A1, “AGONISTS OF ROR GAMMAt” (BRISTOL-MYERS SQUIBB COMPANY, priority 2019, published 2022)

Target: T1, RORgT (Homo sapiens, UniProt P51449)
T1 construct: Gal4 (fusion partner); expressed in transfected cells; host or cells: engineered Jurkat cells (Jurkat pEx/Gal/hRORγ CLBD/HYG pG5luc/blast)
T1 sequence (P51449 267-516): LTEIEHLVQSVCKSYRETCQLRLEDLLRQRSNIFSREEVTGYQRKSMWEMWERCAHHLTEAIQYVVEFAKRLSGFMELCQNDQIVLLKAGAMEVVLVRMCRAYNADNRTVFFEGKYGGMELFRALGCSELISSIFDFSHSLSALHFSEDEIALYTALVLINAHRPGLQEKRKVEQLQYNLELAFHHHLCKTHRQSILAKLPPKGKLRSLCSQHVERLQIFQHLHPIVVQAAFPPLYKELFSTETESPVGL
Assay: RORgT Gal4 Luciferase Reporter Gene Assay
Type: cell-based
Conditions: engineered Jurkat cells overexpressing RORgT (LBD or full length) with Gal4 Luc reporter; 18 hours at 37° C.; 40 μM to 0.67 nM; read-out: RORg_GAL4 EC50
Experimental: The compound and the cells were incubated for 18 hours at 37° C. in a cell culture incubator. Cells were then lysed with 15 uL of Steady-Glo Luciferase Assay reagent (Promega EZ550), followed by centrifuging the assay plates at 1500 RPM for 1 minute. Subsequently, the plates were read on the Envision (PerkinElmer). The inhibition of constitutive activity of RORgT achieved by graded concentrations of compound was calculated as a percentage of the luminescence signal window reduction over a control compound.

| Compound | EC50 |
| --- | --- |
| COc1ccc(Oc2c(Cl)cc(NC(=O)CC3CCCNC3)cc2Cl)cc1C(C)C (racemic) [Example 32, N-(3,5-dichloro-4-(3-isopropyl-4-methoxyphenoxy)phenyl)-2-(piperidin-3-yl)acetamide] | 296 nM |
| COc1ccc(Oc2c(Cl)cc(NC(=O)CC3CCCN(S(C)(=O)=O)C3)cc2Cl)cc1C(C)C (racemic) [Example 41, N-(3,5-dichloro-4-(3-isopropyl-4-methoxyphenoxy)phenyl)-2-(1-(methylsulfonyl)piperidin-3-yl)acetamide] | 356 nM |
| COc1ccc(Oc2c(Cl)cc(NC(=O)OCCS(C)(=O)=O)cc2Cl)cc1C(C)C [Example 1, 2-(methylsulfonyl)ethyl (3,5-dichloro-4-(3-isopropyl-4-methoxyphenoxy)phenyl)carbamate] | 829 nM |
| COc1ccc(Oc2c(Cl)cc(NC(=O)Cc3cccc(C(N)=O)c3)cc2Cl)cc1C(C)C [Example 5, 3-(2-((3,5-dichloro-4-(3-isopropyl-4-methoxyphenoxy)phenyl)amino)-2-oxoethyl)benzamide] | 437 nM |
| COc1ccc(Oc2c(Cl)cc(NC(=O)Cc3cncc(C(N)=O)c3)cc2Cl)cc1C(C)C [Example 6, 5-(2-((3,5-dichloro-4-(3-isopropyl-4-methoxyphenoxy)phenyl)amino)-2-oxoethyl)nicotinamide] | 533 nM |
| COc1ccc(Oc2c(Cl)cc(N3CC(CO)OC3=O)cc2Cl)cc1C(C)C (stereo not shown) [Example 10, 3-(3,5-dichloro-4-(3-isopropyl-4-methoxyphenoxy)phenyl)-5-(hydroxymethyl) oxazolidin-2-one] | 2120 nM |
| COc1ccc(Oc2c(Cl)cc(N3CC(CNS(N)(=O)=O)OC3=O)cc2Cl)cc1C(C)C (stereo not shown) [Example 12, N-[(3-{3,5-dichloro-4-[4-methoxy-3-(propan-2-yl)phenoxy]phenyl}-2-oxo-1,3-oxazolidin-5-yl)methyl]aminosulfonamide] | 1100 nM |
| COc1ccc(Oc2c(Cl)cc(NC(=O)Cc3cccnc3)cc2Cl)cc1C(C)(C)C [Example 13, N-(4-(3-(tert-butyl)-4-methoxyphenoxy)-3,5-dichlorophenyl)-2-(pyridin-3-yl)acetamide] | 268 nM |
| COc1ccc(Oc2c(Cl)ccc(C#N)c2Cl)cc1C(C)C [Example 18, 2,4-dichloro-3-(3-isopropyl-4-methoxyphenoxy)benzonitrile] | 1870 nM |
| COc1ccc(Oc2c(Cl)ccc(C(=O)NCCn3ccnc3)c2Cl)cc1C(C)C [Example 19, N-(2-(1H-imidazol-1-yl)ethyl)-2,4-dichloro-3-(3-isomethoxyphenoxy)benzamide] | 396 nM |
| COc1ccc(Oc2c(Cl)ccc(CNS(=O)(=O)c3cccnc3)c2Cl)cc1C(C)C [Example 21, N-(2,4-dichloro-3-(3-isopropyl-4-methoxyphenoxy)benzyl)pyridine-3-sulfonamide] | 650 nM |
| CC(C)c1cc(F)cc(Oc2c(Cl)cc(NC(=O)OC3CCCN(S(C)(=O)=O)C3)cc2Cl)c1 (stereo not shown) [Example 25, 1-(methylsulfonyl)piperidin-3-yl (3,5-dichloro-4-(3-fluoro-5-isopropylphenoxy)phenyl)carbamate] | 626 nM |
| CC(C)c1cc(F)cc(Oc2c(Cl)cc(NC(=O)NC3CCCN(S(C)(=O)=O)C3)cc2Cl)c1 (stereo not shown) [Example 26, 1-(3,5-dichloro-4-(3-fluoro-5-isopropylphenoxy)phenyl)-3-(1-(methylsulfonyl)piperidin-3-yl)urea] | 322 nM |
| CCS(=O)(=O)Nc1cc(Cl)c(Oc2ccc(OC)c(C(C)C)c2)c(Cl)c1 [Example 33, N-(3,5-dichloro-4-(3-isopropyl-4-methoxyphenoxy)phenyl)ethanesulfonamide] | 4280 nM |
| COc1ccc(Oc2c(Cl)cc(NC(=O)NC(C)C)cc2Cl)cc1C(C)C [Example 34, 1-(3,5-dichloro-4-(3-isopropyl-4-methoxyphenoxy)phenyl)-3-isopropylurea] | 1060 nM |
| COc1ccc(Oc2c(Cl)cc3[nH]c(-c4ccccc4)nc3c2Cl)cc1C(C)C [Example 35, 4,6-dichloro-5-(3-isopropyl-4-methoxyphenoxy)-2-phenyl-1H-benzo[d]imidazole] | 2050 nM |
| COc1ccc(Oc2c(Cl)cc(NC(=N)Cc3cccnc3)cc2Cl)cc1C(C)C [Example 36, N-(3,5-dichloro-4-(3-isopropyl-4-methoxyphenoxy)phenyl)-2-(pyridin-3-yl)acetimidamide] | 455 nM |

The next compounds have a lower EC50 than those just listed; values first:

| EC50 | Compound |
| --- | --- |
| 207 nM | COc1ccc(Oc2c(Cl)cc(NC(=O)CC3CCCN(S(C)(=O)=O)C3)cc2Cl)cc1C(C)C (single isomer, unassigned) [Example 42, N-(3,5-dichloro-4-(3-isopropyl-4-methoxyphenoxy)phenyl)-2-(1-(methylsulfonyl)piperidin-3-yl)acetamide] |
| 246 nM | COc1ccc(Oc2c(Cl)cc(NC(=O)CC3CCCN(S(C)(=O)=O)C3)cc2Cl)cc1C(C)C (single isomer, unassigned) [Example 43, N-(3,5-dichloro-4-(3-isopropyl-4-methoxyphenoxy)phenyl)-2-(1-(methylsulfonyl)piperidin-3-yl)acetamide] |
| 152 nM | COc1ccc(Oc2c(Cl)cc(NC(=O)Cc3ccc(N)nc3)cc2Cl)cc1C(C)C [Example 2, 2-(6-aminopyridin-3-yl)-N-(3,5-dichloro-4-(3-isopropyl-4-methoxyphenoxy)phenyl)acetamide] |
| 54 nM | COc1ccc(Oc2c(Cl)cc(NC(=O)Cc3ccc(S(C)(=O)=O)nc3)cc2Cl)cc1C(C)C [Example 3, N-(3,5-dichloro-4-(3-isopropyl-4-methoxyphenoxy)phenyl)-2-(6-(methylsulfonyl) Pyridin-3-yl)acetamide] |
| 121 nM | COc1ccc(Oc2c(Cl)cc(NC(=O)Cc3cccc(C#N)c3)cc2Cl)cc1C(C)C [Example 4, 2-(3-cyanophenyl)-N-(3,5-dichloro-4-(3-isopropyl-4-methoxyphenoxy)phenyl) acetamide] |
| 173 nM | COc1ccc(Oc2c(Cl)cc(NC(=O)Cc3cn[nH]c3)cc2Cl)cc1C(C)C [Example 7] |
| 81 nM | COc1ccc(Oc2c(Cl)cc(NC(=O)CCn3cc(S(C)(=O)=O)cn3)cc2Cl)cc1C(C)C [Example 9, N-(3,5-dichloro-4-(3-isopropyl-4-methoxyphenoxy)phenyl)-3-(4-(methylsulfonyl)-1H-pyrazol-1-yl)propanamide] |
| 77 nM | COc1ccc(Oc2c(Cl)cc(N3CC(CNC(C)=O)OC3=O)cc2Cl)cc1C(C)C (stereo not shown) [Example 11, N-((3-(3,5-dichloro-4-(3-isopropyl-4-methoxyphenoxy)phenyl)-2-oxooxazolidin-5-yl)methyl)acetamide] |
| 6.1 nM | CC(C)c1cc(F)cc(Oc2c(Cl)ccc(C(=O)NCc3ccc(S(N)(=O)=O)cc3)c2Cl)c1 [Example 16, 2,4-dichloro-3-(3-fluoro-5-isopropylphenoxy)-N-(4-sulfamoylbenzyl)benzamide] |
| 5.2 nM | COc1ncc(Oc2c(Cl)cc(NC(=O)CN3CCN(S(C)(=O)=O)CC3)cc2Cl)cc1C(C)C [Example 17, N-(3,5-dichloro-4-((5-isopropyl-6-methoxypyridin-3-yl)oxy)phenyl)-2-(4-(methylsulfonyl)piperazin-1-yl)acetamide] |
| 95 nM | COc1ccc(Oc2c(Cl)ccc(CN(C)C(=O)c3ccc(S(C)(=O)=O)cc3)c2Cl)cc1C(C)C [Example 22, N-(2,4-dichloro-3-(3-isopropyl-4-methoxyphenoxy)benzyl)-N-methyl-4-(methylsulfonyl)benzamide] |
| 49 nM | COc1ncc(Oc2c(Cl)ccc(NC(=O)Cc3ccc(S(C)(=O)=O)cc3)c2Cl)cc1C(C)C [Example 23, N-(2,4-dichloro-3-((5-isopropyl-6-methoxypyridin-3-yl)oxy)phenyl)-2-(4-(methylsulfonyl)phenyl)acetamide] |
| 45 nM | COc1ncc(Oc2c(Cl)cc(NC(=O)CC3CCN(S(=O)(=O)C(C)C)CC3)cc2Cl)cc1C(C)C [Example 24, N-(3,5-dichloro-4-((5-isopropyl-6-methoxypyridin-3-yl)oxy)phenyl)-2-(1-(isopropylsulfonyl)piperidin-4-yl)acetamide] |
| 30 nM | COc1ncc(Oc2c(Cl)cc(NC(=O)CC3CCN(S(C)(=O)=O)CC3)cc2Cl)cc1C(C)(C)O [Example 27, N-(3,5-dichloro-4-((5-(2-hydroxypropan-2-yl)-6-methoxypyridin-3-yl)oxy)phenyl)-2-(1-(methylsulfonyl)piperidin-4-yl)acetamide] |
| 6.9 nM | COc1ncc(Oc2c(Cl)cc(NC(=O)CC3CCN(S(C)(=O)=O)CC3)cc2Cl)cc1C(C)(C)F [Example 28, N-(3,5-dichloro-4-((5-(2-fluoropropan-2-yl)-6-methoxypyridin-3-yl)oxy)phenyl)-2-(1-(methylsulfonyl)piperidin-4-yl)acetamide] |
| 5.8 nM | CC(C)(F)c1cc(Oc2c(Cl)cc(NC(=O)CC3CCN(S(C)(=O)=O)CC3)cc2Cl)cnc1OC(F)F [Example 29, N-(3,5-dichloro-4-((6-(difluoromethoxy)-5-(2-fluoropropan-2-yl)pyridin-3-yl)oxy)phenyl)-2-(1-(methylsulfonyl)piperidin-4-yl)acetamide] |
| 216 nM | COc1ncc(Oc2c(Cl)ccc(C(=O)N3CCC4(CC3)CN(S(C)(=O)=O)C4)c2Cl)cc1C(C)(C)F [Example 30, (2,4-dichloro-3-((5-(2-fluoropropan-2-yl)-6-methoxypyridin-3-yl)oxy)phenyl)(2-(methylsulfonyl)-2,7-diazaspiro[3.5]nonan-7-yl)methanone] |
